Results as given in patent US10844062B2, “Pyridine derivative inhibiting RAF kinase and vascular endothelial growth factor receptor, method for preparing same, pharmaceutical composition containing same, and use thereof” (SAMJIN PHARMACEUTICAL CO., LTD., priority 2016, dated 2020).
Like-named read-outs stand apart in the source and are kept apart here.

What was measured:
[1] = system: LS513 human colorectal cancer cell line xenograft; experiment: Antitumor effect on human colorectal cancer LS513 cell line xenograft; type: in vivo, Balb/c nu/nu nude mice; settings: oral, twice a day, 14 days; for antitumor effect (tumor growth inhibition) compared to the vehicle control: 60 mg/kg or 30 mg/kg (dose not specified per compound)
Text: In this experiment, 5 to 6-week-old female Balb/c nu/nu nude mice (weighed 18 to 20 g) were used. The mice were provided from Nara Biotech Co., Ltd. During the experiment, all the animals were housed on a mouse constant temperature/constant humidity shelf (Individually Ventilated Cages System, LAB & BIO).
Each cage (37.2 cm length×19.2 cm width×13.1 cm height) was sterilized with a sterilizer, and eight mice were received in each cage. The mice were maintained in a hygienic environment controlled to a temperature of 20 to 24° C. and a humidity of 40 to 70% with a 12-hr light/12-hr dark cycle. The mice were allowed to access sterilized feed and drinking water ad libitum. The care and treatment of these animals were carried out according to the Laboratory Animal Care Guidelines of Samjin Pharmaceutical Co., Ltd.
The mice were acclimated to the housing facility for 1 week, and then 0.1 mL of a cell suspension containing 1×10^7 cells was injected subcutaneously into the right flank of each mouse. After cell transplantation, the volume of the formed tumor was measured, and mice with formed tumors having a volume of 150 mm^3 or more were randomly divided into groups (each consisting of 7 to 8 animals) for treatment with the test compounds and a control. […] Administration of the drugs was continued for 14 days. […] At 3-day intervals from the starting day of the administration, the long axis and short axis of the tumor were measured with digital vernier calipers, and the tumor volume was calculated using the following equation and recorded: Tumor volume (TV)=Long axis×short axis^2/2.
Tumor growth inhibition for absolute tumor volume was calculated using the following equation. In the following equation, V0 is the tumor volume on the first day of drug administration (day 0), and Vt is the tumor volume after last drug administration.

[2] = molecular target: C-Raf (Homo sapiens (Human), UniProt P04049); experiment: Raf kinase inhibitory activity (Raf/MEK1/MAPK2 cascade, MBP phosphorylation, 32P); type: biochemical
Description: (§1) In order to examine the inhibitory activities of the compounds of the present invention against Raf kinases (B-Raf, C-Raf, B-Raf^V600E), the following experiment was performed.
(§2) (1) Consecutive Signal Transduction Reaction
(§3) To a centrifugation tube, 20 μl of a dilution solvent (20 mM MOPS, pH 7.2, 25 mM (3-glycerol phosphate, 5 mM EGTA, 1 mM sodium orthovanadate, 1 mM dithiothreitol) and 20 μl of a Mg/ATP mixture (500 μM ATP and 75 mM magnesium chloride) were added. Then, each of the derivative compounds of formula 1 was added. As a control, 1 ng of activated raf, 0.4 ng of inactivated MEK1 and 1 μg of inactivated MAPK2 were added without adding Example compounds. The solutions in the tube were concentrated at the bottom of the tube by centrifugation, and then allowed to react at 30° C. for 30 minutes, and 4 μl of the mixture solution was taken and used in the next experimental step.
(§4) (2) Phosphorylation of Substrate Protein MBP by MAPK2
(§5) To 4 μl of the mixture solution taken in (1), 10 μl of a dilution solvent, 20 μg of MBP as a substrate, and 10 μl of diluted [γ-32P]ATP (1 μCi/μL) were added. The solutions in the tube were concentrated at the bottom of the tube by centrifugation, and then allowed to react at 30° C. for 30 minutes. 25 μl of the reaction solution was carefully placed on the center of 2 cm×2 cm P81 filter paper for 30 seconds. Next, the filter paper was washed three times with 0.75% phosphoric acid solution for 10 minutes each time and washed once with acetone for 5 minutes. Next, the filter paper was transferred into a scintillation vial, and 5 ml of a scintillation cocktail was added thereto. Raf activity inhibition rate (IC50) was measured by reading the radioactivity with a scintillation counter in comparison with the control.

[3] = molecular target: B-Raf (Homo sapiens (Human), UniProt P15056); experiment: as above; type: biochemical
Description: as §1, §2, §3, §4, §5

[4] = molecular target: B-Raf V600E (Homo sapiens (Human), UniProt P15056, V600E); experiment: as above; type: biochemical
Description: as §1, §2, §3, §4, §5

[5] = system: HUVEC (VEGF); experiment: MTT assay; type: cell-based; settings: Homo sapiens, 72 h, Table 5, 3 days incubation
Outline: (§6)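 Cells were seeded at line-dependent density and stabilised overnight at 37 °C, then exposed to compounds for 3 days at 37 °C. MTT was then added for 2 h and the formazan dissolved in DMSO.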

[6] = system: SK-MEL2 NRAS Q61R (melanoma); experiment: MTT assay; type: cell-based; settings: Homo sapiens, SK-MEL-2, 72 h; Table 5; 3 days incubation
Outline: as §6

[7] = system: A-375P BRAF V600E (melanoma); experiment: MTT assay; type: cell-based; settings: A375P, 72 h; Table 5; 3 days incubation
Outline: as §6

[8] = system: LS513 KRAS G12V (colon); experiment: MTT assay; type: cell-based; settings: Homo sapiens, LS-513, 72 h, 3 days incubation, read-out: MTT assay IC50 KRAS mutant (Colon) LS513 KRAS G12V
Outline: as §6

[9] = system: HCT-116 KRAS G13D (colon); experiment: MTT assay; type: cell-based; settings: Homo sapiens, HCT-116, 72 h; Table 5; 3 days incubation; read-out: MTT assay IC50 KRAS mutant (Colon) HCT-116 KRAS G13D
Outline: as §6

[10] = system: SW620 KRAS G12V (colon); experiment: MTT assay; type: cell-based; settings: Homo sapiens, SW-620, 72 h; Table 5; 3 days incubation; read-out: MTT assay IC50 KRAS mutant (Colon) SW620 KRAS G12V
Outline: as §6

[11] = system: WiDR BRAF V600E (colon); experiment: MTT assay; type: cell-based; settings: Homo sapiens, 72 h, Table 5, 3 days incubation, read-out: MTT assay IC50 BRAF mutant (Colon) WiDR BRAF V600E
Outline: as §6

[12] = system: LS513 human colorectal cancer cell line xenograft; experiment: Antitumor effect on human colorectal cancer LS513 cell line xenograft; type: in vivo, Balb/c nu/nu nude mice; settings: oral

B-Raf, sequence (P15056 whole entry): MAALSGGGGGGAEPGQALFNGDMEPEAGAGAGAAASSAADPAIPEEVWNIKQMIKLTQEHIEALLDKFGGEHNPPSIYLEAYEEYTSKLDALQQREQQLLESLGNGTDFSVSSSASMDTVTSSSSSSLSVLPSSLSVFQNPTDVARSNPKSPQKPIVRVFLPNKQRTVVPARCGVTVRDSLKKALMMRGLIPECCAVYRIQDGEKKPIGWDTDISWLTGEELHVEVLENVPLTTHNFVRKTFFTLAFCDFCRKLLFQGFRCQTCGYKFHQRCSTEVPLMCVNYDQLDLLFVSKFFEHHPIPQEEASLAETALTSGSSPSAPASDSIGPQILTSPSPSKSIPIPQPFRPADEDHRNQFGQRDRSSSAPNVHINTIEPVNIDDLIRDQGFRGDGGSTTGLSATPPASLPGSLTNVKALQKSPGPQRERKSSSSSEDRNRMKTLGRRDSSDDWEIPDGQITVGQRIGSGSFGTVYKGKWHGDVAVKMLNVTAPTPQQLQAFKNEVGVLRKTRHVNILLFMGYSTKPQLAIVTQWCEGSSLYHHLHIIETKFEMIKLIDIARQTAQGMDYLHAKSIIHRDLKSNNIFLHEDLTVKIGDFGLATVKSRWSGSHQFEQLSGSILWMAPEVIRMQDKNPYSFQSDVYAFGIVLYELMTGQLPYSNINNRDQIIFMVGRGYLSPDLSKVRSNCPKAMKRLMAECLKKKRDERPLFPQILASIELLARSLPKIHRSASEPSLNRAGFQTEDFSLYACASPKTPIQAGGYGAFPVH
B-Raf V600E, sequence (P15056 whole entry V600E): as the sequence (P15056 whole entry) above, with V600E counted along it
C-Raf, sequence (P04049 whole entry): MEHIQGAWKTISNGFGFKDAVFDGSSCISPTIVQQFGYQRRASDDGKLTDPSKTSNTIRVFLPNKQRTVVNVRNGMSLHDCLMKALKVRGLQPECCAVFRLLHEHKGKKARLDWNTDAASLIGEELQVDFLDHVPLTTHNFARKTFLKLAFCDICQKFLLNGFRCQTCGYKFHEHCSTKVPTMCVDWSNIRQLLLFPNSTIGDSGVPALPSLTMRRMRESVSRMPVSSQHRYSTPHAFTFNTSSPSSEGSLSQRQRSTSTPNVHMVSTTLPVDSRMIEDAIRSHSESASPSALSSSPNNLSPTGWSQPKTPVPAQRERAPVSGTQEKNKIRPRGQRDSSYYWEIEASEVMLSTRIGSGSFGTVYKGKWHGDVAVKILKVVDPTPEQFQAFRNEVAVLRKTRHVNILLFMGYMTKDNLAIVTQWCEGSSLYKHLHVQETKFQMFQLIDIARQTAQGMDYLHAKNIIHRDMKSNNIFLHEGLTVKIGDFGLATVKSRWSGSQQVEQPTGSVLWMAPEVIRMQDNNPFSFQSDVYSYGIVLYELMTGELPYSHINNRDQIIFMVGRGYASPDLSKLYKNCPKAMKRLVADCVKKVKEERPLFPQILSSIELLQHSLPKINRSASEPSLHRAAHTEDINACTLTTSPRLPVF

Compound | antitumor effect (tumor growth inhibition) compared to the control group ([1]; 30 mg/kg) [%] | antitumor effect (tumor growth inhibition) compared to the control group ([1]; 60 mg/kg) [%] | IC50 [2] [nM] | IC50 [3] [nM] | IC50 [4] [nM] | IC50 [5] [nM] | IC50 [6] [nM] | IC50 [7] [nM] | IC50 ([8]; Table 4) [nM] | IC50 ([8]; Table 5) [nM] | IC50 [9] [nM] | IC50 [10] [nM] | IC50 [11] [nM] | antitumor effect (tumor growth inhibition) compared to the vehicle control [1] [%] | antitumor effect (tumor growth inhibition) ([12]; 12.5 mg/kg, 21 days) [%] | antitumor effect (tumor growth inhibition) ([12]; 25 mg/kg, 21 days) [%] | antitumor effect (tumor growth inhibition) ([12]; 50 mg/kg, 21 days) [%] | antitumor effect (tumor growth inhibition) ([12]; 50 mg/kg, once a day, 13 days) [%]
O=C(Nc1cc(Nc2ncccc2-c2ncnc3[nH]cnc23)ccc1F)c1cccc(C(F)(F)F)c1 [Example 30, N-(5-(3-(9H-Purin-6-Yl)Pyridin-2-Ylamino)-2-Fluorophenyl)-3-(Trifluoromethyl)Benzamide] | 76.9 | 88.7 | 0.7 | 2.7 | 5.2 | 13 | 122 | 246 | 143 | 79 | 145 | 864 | 636 | – | – | – | – | –
CC(C)(C#N)c1cccc(C(=O)Nc2ccc(F)c(Nc3ncccc3-c3ncnc4[nH]cnc34)c2F)c1 [Example 9, N-(3-(3-(9H-purin-6-yl)pyridin-2-ylamino)-2,4-difluorophenyl)-3-(2-cyanopropan-2-yl)benzamide] | – | – | 0.6 | 2 | 0.2 | 44 | 106 | 40 | 656 | 138 | 75 | 643 | 58 | – | – | – | – | –
CC(C)(C#N)c1cccc(C(=O)Nc2cccc(Nc3ncccc3-c3ncnc4[nH]cnc34)c2)c1 [Example 23, N-(3-(3-(9H-purin-6-yl)pyridin-2-ylamino)phenyl)-3-(2-cyanopropan-2-yl)benzamide] | – | – | 8 | 17 | 7 | 28 | 58 | 12 | 687 | 95 | 50 | 321 | 62 | – | – | – | – | –
Cc1cn(-c2cc(NC(=O)Nc3ccc(F)c(Nc4ncccc4-c4ncnc5[nH]cnc45)c3F)cc(C(F)(F)F)c2)cn1 [Example 59, 1-(3-(3-(9H-Purin-6-Yl)Pyridin-2-Ylamino)-2,4-Difluorophenyl)-3-(3-(4-Methyl-1H-Imidazol-1-Yl)-5-(Trifluoromethyl)Phenyl)Urea] | – | – | – | – | – | – | – | – | 2140 | – | – | – | – | 83.51 | – | – | – | –
O=C(Nc1cc(Nc2ncccc2-c2ncnc3[nH]cnc23)ccc1F)c1cc(Cl)cc(C(F)(F)F)c1 [Example 135, N-5-[(3-(9H-purin-6-yl)pyridin-2-yl)amino]-2-fluorophenyl-3-chloro-5-(trifluoromethyl)benzamide] | – | – | 34 | 161 | 86 | 733 | – | – | 80 | 88 | 74 | 317 | 68 | – | 52.36 | 74.73 | 86.85 | 92.66
CC(C)(C#N)c1cc(F)cc(C(=O)Nc2cc(Nc3ncccc3-c3ncnc4[nH]cnc34)ccc2F)c1 [Example 33, N-(5-(3-(9H-Purin-6-Yl)Pyridin-2-Ylamino)-2-Fluorophenyl)-3-(2-Cyanopropan-2-Yl)-5-Fluorobenzamide] | – | – | 24 | 94 | 33 | – | – | – | 199 | – | – | – | – | 96.0 | – | – | – | –
O=C(Nc1ccc(F)c(Nc2ncccc2-c2ncnc3[nH]cnc23)c1F)c1cccc(C(F)(F)F)c1 [Example 1, N-(3-(3-(9H-purin-6-yl)pyridin-2-ylamino)-2,4-difluorophenyl)-3-(trifluoromethyl)benzamide] | – | – | 23 | 34 | 16 | 22 | – | 95 | 1180 | 278 | 101 | 849 | 115 | – | – | – | – | –
O=C(Nc1cc(Nc2ncccc2-c2ncnc3[nH]cnc23)ccc1F)c1cc(C(F)(F)F)cc(C(F)(F)F)c1 [Example 65, N-2-Fluoro-5-[3-(9H-Purin-6-Yl)Pyridin-2-Ylamino)Phenyl-3,5-Bis(Trifluoromethyl)Benzamide] | – | – | 257 | 331 | 187 | 850 | – | – | 100 | 322 | 208 | 700 | 247 | – | – | – | – | 95.42
CC(C)(C#N)c1cc(C(=O)Nc2cc(Nc3ncccc3-c3ncnc4[nH]cnc34)ccc2F)cc(C(F)(F)F)c1 [Example 154, N-5-[(3-(9H-purin-6-yl)pyridin-2-yl)amino]-2-fluorophenyl-3-(2-cyanopropan-2-yl)-5-(trifluoromethyl)benzamide] | – | – | – | – | – | – | – | – | 326 | 326 | – | – | 97 | – | – | – | – | 83.19
Cc1cc(C(=O)Nc2cc(Nc3ncccc3-c3ncnc4[nH]cnc34)ccc2F)cc(C(F)(F)F)c1 [Example 139, N-5-[(3-(9H-purin-6-yl)pyridin-2-yl)amino]-2-fluorophenyl-3-methyl-5-(trifluoromethyl)benzamide] | – | – | – | – | – | – | – | – | 99 | 96 | – | – | 116 | – | – | – | – | 91.04
COc1ccc(C(=O)Nc2ccc(F)c(Nc3ncccc3-c3ncnc4[nH]cnc34)c2F)cc1 [Example 53, N-(3-(3-(9H-Purin-6-Yl)Pyridin-2-Ylamino)-2,4-Difluorophenyl)-4-Methoxybenzamide] | – | – | 7 | 14 | 6 | 5.8 | 35 | 4 | > 10000 | 29 | 17 | 180 | 391 | – | – | – | – | –
